# Reference: the supplement of paper PMC10702517
# ± gives the standard deviation.
# Assays:
# [1] = chemical recovery from spiked human plasma; higher = better extraction; details: pooled human plasma
# [2] = chemical recovery by SPE of plasma after PDMS sampling; higher = better extraction; details: pooled human plasma, extraction method: HLB SPE of plasma after PES
# [3] = chemical recovery into PDMS from spiked human plasma; higher = better extraction; details: pooled human plasma, extraction method: PES with PDMS
# [4] = extraction method: SPE only (HLB 96-well)
# [5] = extraction method: SPE only (HLB 96-well), PES comparison experiment
# [6] = extraction method: solvent precipitation (ACN + hexane)
# [7] = extraction method: PES+SPE (3 d PDMS equilibration then HLB SPE)
# 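Throughout, for chemical recovery by SPE of plasma after PDMS sampling: over 400 spiked chemicals quantified by LC-HRMS or GC-HRMS via internal standard calibration, recovery relative to spike mix added to unspiked plasma extract to correct matrix effects.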
SMILES,"chemical recovery [1, 4]","chemical recovery [1, 5]","chemical recovery [1, 6]",chemical recovery by SPE of plasma ([2]; equilibration time (d): 1),chemical recovery by SPE of plasma ([2]; equilibration time (d): 3),chemical recovery by SPE of plasma ([2]; equilibration time (d): 6),chemical recovery into PDMS ([3]; equilibration time (d): 1),chemical recovery into PDMS ([3]; equilibration time (d): 3),chemical recovery into PDMS ([3]; equilibration time (d): 6),"chemical recovery [1, 7]"
CC1CN(C2CCCCCCCCCCC2)CC(C)O1 (stereo not given) [Dodemorph],29 ± 0.98%,44.3 ± 4.7%,73 ± 8.6%,0.166 ± 0.13%,0.11 ± 0.031%,0.044 ± 0.0048%,1.2 ± 0.66%,1.32 ± 1%,1.41 ± 0.46%,
C[C@]12CCC(=O)C=C1[C@@H]1C[C@@H]1[C@H]1[C@@H]3[C@@H]4C[C@@H]4[C@@]4(CCC(=O)O4)[C@@]3(C)CC[C@@H]12 [Drospirenone],,42.6 ± 8.3%,,3.88 ± 0.83%,2.16 ± 0.41%,1.04 ± 0.16%,41.9 ± 2.5%,45.7 ± 3%,44.9 ± 1.4%,
CC(C)(C)c1ccc(C(=O)CCCN2CCC(OC(c3ccccc3)c3ccccc3)CC2)cc1 [Ebastin],,36.2 ± 9%,,0.574 ± 0.23%,,,0.444 ± 0.073%,0.712 ± 0.075%,0.469 ± 0.24%,
O=C1Nc2ccc(Cl)cc2C(C#CC2CC2)(C(F)(F)F)O1 (stereo not given) [Efavirenz],27.1 ± 5.3%,38.7 ± 7.3%,41.4 ± 3.2%,4.94 ± 4.3%,6.96 ± 1.3%,1.44 ± 2.5%,44.7 ± 4.4%,46.6 ± 4.5%,47.4 ± 0.83%,
CC[C@H](C)[C@H]1O[C@]2(C=C[C@@H]1C)C[C@@H]1C[C@@H](C/C=C(\C)[C@@H](O[C@H]3C[C@H](OC)[C@@H](O[C@H]4C[C@H](OC)[C@@H](NC)[C@H](C)O4)[C@H](C)O3)[C@@H](C)/C=C/C=C3\CO[C@@H]4[C@H](O)C(C)=C[C@@H](C(=O)O1)[C@]34O)O2 [Emamectin B1a],,29.7 ± 9.1%,69 ± 6.4%,9.54 ± 2.3%,9.04 ± 3%,8.2 ± 4.6%,0.154 ± 0.044%,0.139 ± 0.047%,0.0633 ± 0.056%,
CCOC1Oc2ccc(OS(C)(=O)=O)cc2C1(C)C (stereo not given) [Ethofumesate],48.8 ± 1.2%,52.8 ± 9.5%,,0.62 ± 1.1%,1.94 ± 1.7%,0.896 ± 1.6%,40.5 ± 3.4%,42.3 ± 2.6%,44 ± 0.63%,43.9 ± 5.2%
CCOC(=O)c1ccc(N(C)C)cc1 [Ethyl 4-(dimethylamino)benzoate],38.6 ± 1.8%,37.5 ± 6.9%,60.4 ± 5.1%,1.27 ± 0.14%,1.79 ± 0.23%,1.11 ± 0.13%,26 ± 6%,27.7 ± 4.9%,29.8 ± 3.4%,25.6 ± 9.8%
CCOP(=S)(OCC)SCn1nnc2ccccc2c1=O [Ethyl azinphos],,46.3 ± 6%,69.5 ± 2.2%,2.46 ± 0.6%,2.42 ± 0.18%,1.19 ± 0.21%,39.8 ± 4.6%,41.4 ± 0.64%,42.5 ± 2.1%,
S=C1NCCN1 [Ethylenethiourea],0.261 ± 0.34%,,,,0.0882 ± 0.15%,0.15 ± 0.26%,,,0.013 ± 0.022%,0.046 ± 0.019%
CC(Cc1ccc(C(C)(C)C)cc1)CN1CCCCC1 (stereo not given) [Fenpropidin],,44.5 ± 7.7%,105 ± 9.7%,0.126 ± 0.086%,0.0736 ± 0.023%,0.0409 ± 0.011%,,0.0302 ± 0.026%,,
CC(Cc1ccc(C(C)(C)C)cc1)CN1C[C@@H](C)O[C@@H](C)C1 (stereo not given in full) [Fenpropimorph],,43.4 ± 8%,80.2 ± 11%,0.124 ± 0.08%,0.066 ± 0.064%,0.0142 ± 0.017%,0.0443 ± 0.064%,0.0146 ± 0.013%,0.0427 ± 0.056%,
CC(C)(C)NC(=O)[C@H]1CC[C@H]2[C@@H]3CC[C@H]4NC(=O)C=C[C@]4(C)[C@H]3CC[C@]12C [Finasteride],,47.9 ± 6.3%,,9.28 ± 1.5%,5.81 ± 1.2%,3.05 ± 0.42%,32.6 ± 3%,37.9 ± 1.4%,38.5 ± 0.91%,
N#Cc1nn(-c2c(Cl)cc(C(F)(F)F)cc2Cl)c(N)c1C(F)(F)F [Fipronil desulfinyl],30.2 ± 6.1%,67.3 ± 7.3%,53.7 ± 4.2%,17.6 ± 2.5%,18 ± 1.9%,13.8 ± 0.85%,33.7 ± 0.57%,36.3 ± 2.9%,34.8 ± 0.66%,
N#Cc1nn(-c2c(Cl)cc(C(F)(F)F)cc2Cl)c(N)c1SC(F)(F)F [Fipronil sulfide],30.6 ± 3.4%,64 ± 7%,49.8 ± 3.9%,21.2 ± 6.2%,19.9 ± 0.92%,15.3 ± 3%,22.6 ± 0.34%,25.1 ± 1.1%,24.4 ± 0.83%,
N#Cc1nn(-c2c(Cl)cc(C(F)(F)F)cc2Cl)c(N)c1S(=O)(=O)C(F)(F)F [Fipronil sulfone],36.7 ± 3.6%,67.9 ± 8.3%,67.4 ± 7.9%,41.6 ± 14%,34.1 ± 7.7%,30.8 ± 9.5%,27.8 ± 0.78%,32.2 ± 2.1%,31 ± 0.79%,
N#Cc1nn(-c2c(Cl)cc(C(F)(F)F)cc2Cl)c(N)c1[S+]([O-])C(F)(F)F (stereo not given) [Fipronil],31.6 ± 8.2%,64.5 ± 6.8%,40.3 ± 3.4%,19 ± 4.9%,21.5 ± 4.3%,15.4 ± 2.5%,25.5 ± 0.91%,30.2 ± 2.3%,29 ± 0.92%,
OC(Cn1cncn1)(Cn1cncn1)c1ccc(F)cc1F [Fluconazole],,47 ± 6.6%,77.1 ± 3.1%,42.2 ± 4.3%,42.2 ± 4.8%,36.6 ± 3.1%,2.22 ± 0.25%,4.26 ± 1.1%,4.9 ± 1%,43.8 ± 3.3%
CC(C)N(C(=O)COc1nnc(C(F)(F)F)s1)c1ccc(F)cc1 [Flufenacet],,52.3 ± 7.7%,62.5 ± 3.1%,0.558 ± 0.061%,0.583 ± 0.14%,0.269 ± 0.043%,50 ± 1.1%,54.1 ± 4.8%,51.2 ± 6%,
CC1CCc2cc(F)cc3c(=O)c(C(=O)O)cn1c23 (stereo not given) [Flumequine],44.8 ± 8%,49.8 ± 7.5%,72.1 ± 3.2%,43.1 ± 2.7%,43.8 ± 3.9%,40.3 ± 3.2%,0.511 ± 0.092%,2.26 ± 0.88%,2.3 ± 1.2%,44.1 ± 3.4%
CC1(C)O[C@@H]2C[C@H]3[C@@H]4C[C@H](F)C5=CC(=O)C=C[C@]5(C)[C@H]4[C@@H](O)C[C@]3(C)[C@]2(C(=O)CO)O1 [Flunisolide],,46.9 ± 5.2%,,39.7 ± 3.9%,37.1 ± 2.1%,27.6 ± 2.4%,5.95 ± 0.6%,10.2 ± 1.6%,11.7 ± 2%,
c1ccc2c(c1)-c1cccc3cccc-2c13 [Fluoranthene],6.27 ± 1.4%,,69 ± 3.7%,,,3.75 ± 6.5%,,106 ± 24%,,79.1 ± 25%
CC(=O)[C@@]1(O)CC[C@H]2[C@@H]3C[C@H](C)C4=CC(=O)C=C[C@]4(C)[C@@]3(F)[C@@H](O)C[C@@]21C [Fluorometholone],,50.4 ± 7.2%,,45.1 ± 3.6%,48.3 ± 3.2%,40.3 ± 1.6%,1.66 ± 0.4%,3.75 ± 0.69%,4.15 ± 0.95%,
CNC1=C(c2cccc(C(F)(F)F)c2)C(=O)C(c2ccccc2)O1 (stereo not given) [Flurtamone],51.2 ± 0.52%,49.3 ± 7.7%,80.8 ± 2.4%,15.5 ± 2.1%,11 ± 1.4%,6.82 ± 0.47%,1.85 ± 0.36%,4.2 ± 2%,5.43 ± 2.8%,32.8 ± 7.2%
C[Si](Cn1cncn1)(c1ccc(F)cc1)c1ccc(F)cc1 [Flusilazole],39.4 ± 2.9%,48 ± 7.1%,70.1 ± 5.4%,0.32 ± 0.12%,0.383 ± 0.15%,0.136 ± 0.0093%,41.3 ± 2.2%,45.7 ± 3.8%,43.1 ± 5.8%,45.1 ± 4.8%
CC(C)C(=O)Nc1ccc([N+](=O)[O-])c(C(F)(F)F)c1 [Flutamide],,67.8 ± 5.2%,,21.7 ± 2.7%,22.2 ± 0.83%,15.5 ± 1.1%,32.4 ± 1.4%,36.2 ± 3.1%,36.7 ± 1.6%,
